Structures can show the parent of a compound that is named as a salt.
Experiments:
[1] = system: mouse myopic models (−30D lens on right eye, 0D lens on left eye); test: Axial length measurement in lens-induced myopia mice (spectral domain optical coherence tomography); format: in vivo, mice (C57BL6/J); details: for myopia progression judged by axial length difference −30D vs 0D eyes: eyedrops 0.1 mg/mL once per day; for axial myopia progression judged by axial length difference −30D vs 0D eyes: Experiment 3, eyedrops 0.01% (0.01 mg/mL) once per day
Protocol: (§1) During the myopia induction period, eyedrops were administered once per day. Phosphate buffered saline (PBS) eyedrops were classified as a control group (Control), and α1-blocker eyedrops were classified as test groups.
(§2) The refractive index and the axial length of the mouse eyeball after three weeks were measured and the amounts of change were calculated. The refractive values were measured by using an infrared photorefractor for mice (fabricated by Prof Schaeffel of University of Tubingen). The more negative the refractive index, the more severe the myopia. The axial lengths were measured by using spectral domain optical coherence tomography (Envisu R4310, manufactured by Leica). The greater the value of the axial length, the greater the severity of myopia.
(§3) The eyedrops were administered once per day for the three weeks of the myopia induction period.
(§4) α1-blocker eyedrops having concentrations (mg of α1-blocker salt contained in 1 mL: mg/mL) of 0.001 (mg/mL), 0.01 (mg/mL), and 0.1 (mg/mL) were used as the eyedrops. The eyedrops were administered once per day for the three weeks of the myopia induction period. The control group was used with PBS eyedrops not containing an α1-blocker, and the α1-blocker eyedrops were eyedrops obtained by containing bunazosin hydrochloride at the predetermined concentrations.
(§5) The PBS (control group), bunazosin eyedrops (bunazosin of 0.01%, bunazosin hydrochloride of 0.01 mg/mL), silodosin eyedrops (silodosin of 0.01%, silodosin of 0.01 mg/mL), and tamsulosin eyedrops (tamsulosin of 0.01%, tamsulosin hydrochloride of 0.01 mg/mL) were used as the eyedrops. The eyedrops were administered once per day for the three weeks of the myopia induction period, as in Experiments 1 and 2. For the control group as well, PBS eyedrops not containing an α1-blocker were used, as in Experiments 1 and 2.

[2] = system: mouse myopic models (−30D lens on right eye, 0D lens on left eye); test: Refractive power measurement in lens-induced myopia mice (infrared photorefractor); format: in vivo, mice (C57BL6/J)
Protocol: as §1, §2, §3, §4, §5

[3] = cited from earlier work
[4] = Experiment 1, eyedrops 0.1 mg/mL once per day for three weeks, amount of change
[5] = Experiment 2, concentration 0.001 mg/mL
[6] = Experiment 2, concentration 0.001 mg/mL, once per day, three weeks
[7] = Experiment 2, concentration 0.01 mg/mL
[8] = Experiment 2, concentration 0.01 mg/mL, once per day, three weeks
[9] = Experiment 2, concentration 0.1 mg/mL
[10] = Experiment 2, concentration 0.1 mg/mL, once per day, three weeks
[11] = Experiment 1, eyedrops 0.1 mg/mL once per day for three weeks of myopia induction, amount of change
[12] = Experiment 1, eyedrops 0.1 mg/mL once per day, three weeks
[13] = Experiment 3, eyedrops 0.01% (0.01 mg/mL) once per day, three weeks

SMILES	axial length, eyes with the 0D lens [1, 4] [mm]	axial length, eyes with the −30D lens [1, 4] [mm]	myopia progression judged by axial length difference −30D vs 0D eyes ([1]; Experiment 1, three weeks)	axial myopia progression judged by axial length difference −30D vs 0D eyes ([1]; three weeks)	refractive power, eyes with the −30D lens [2, 11] [D]	refractive power, eyes with the 0D lens [2, 4] [D]	myopia progression judged by refractive power difference −30D vs 0D eyes [2, 12]	myopia progression judged by refractive power difference −30D vs 0D eyes [2, 13]	solubility with respect to water [3]	further results
CCCC(=O)N1CCCN(c2nc(N)c3cc(OC)c(OC)cc3n2)CC1 [bunazosin]	0.187±0.019	0.191±0.026	progression of myopia was suppressed	progression of axial myopia was suppressed	−0.74±4.07	3.65±4.72	progression of myopia was suppressed	progression of myopia was suppressed	–	myopia progression judged by axial length [1, 5]: showed an elongation in axial length; axial length, eyes with the 0D lens [1, 6]: 0.196±0.008 mm; axial length, eyes with the −30D lens [1, 6]: 0.228±0.017 mm; myopia progression judged by axial length [1, 7]: progression of myopia was suppressed; axial length, eyes with the 0D lens [1, 8]: 0.192±0.021 mm; axial length, eyes with the −30D lens [1, 8]: 0.209±0.024 mm; myopia progression judged by axial length [1, 9]: progression of myopia was suppressed; axial length, eyes with the 0D lens [1, 10]: 0.180±0.028 mm; axial length, eyes with the −30D lens [1, 10]: 0.189±0.024 mm; myopia progression judged by refractive power [2, 5]: a sufficient myopia progression suppressing effect was not obtained; refractive power, eyes with the 0D lens [2, 6]: −0.33±3.47 D; refractive power, eyes with the −30D lens [2, 6]: −10.90±4.13 D; myopia progression judged by refractive power [2, 7]: progression of myopia was suppressed; refractive power, eyes with the 0D lens [2, 8]: −0.83±3.20 D; refractive power, eyes with the −30D lens [2, 8]: −6.92±4.08 D; myopia progression judged by refractive power [2, 9]: progression of myopia was suppressed; refractive power, eyes with the 0D lens [2, 10]: 3.19±3.76 D; refractive power, eyes with the −30D lens [2, 10]: −1.26±3.28 D
COc1cc2nc(N3CCN(C(=O)C4COc5ccccc5O4)CC3)nc(N)c2cc1OC (stereo not drawn) [doxazosin hydrochloride]	–	–	–	–	–	–	–	–	approximately 5 mg/mL	–
COc1cc2nc(N3CCN(C(=O)c4ccco4)CC3)nc(N)c2cc1OC [prazosin]	–	–	–	–	–	–	–	–	1.4 mg/mL	–
C[C@H](Cc1cc2c(c(C(N)=O)c1)N(CCCO)CC2)NCCOc1ccccc1OCC(F)(F)F [silodosin]	–	–	–	progression of axial myopia was suppressed	–	–	–	progression of myopia was suppressed	–	–
CCOc1ccccc1OCCN[C@H](C)Cc1ccc(OC)c(S(N)(=O)=O)c1 [tamsulosin]	–	–	–	progression of axial myopia was suppressed	–	–	–	progression of myopia was suppressed	–	–
COc1ccccc1N1CCN(CCCNc2cc(=O)n(C)c(=O)n2C)CC1 [urapidil]	0.217±0.014	0.233±0.020	progression of myopia was suppressed	–	−5.51±6.29	0.33±7.07	progression of myopia was suppressed	–	25 mg/mL	–
